System: melanocytes
Experiment: Proliferation inhibitory test against melanocyte caused by ultraviolet irradiation
Format: cell-based
Conditions: cultured melanocytes, compound at 1 μg/ml
Protocol: Proliferation Inhibitory Test Against Melanocyte Caused by Ultraviolet Irradiation
Melanocytes were cultured according to the authentic method, and the proliferation of melanocytes in the presence or absence of test drugs under the ultraviolet irradiation was measured.

Compound: O=C(Nc1cc(C(F)(F)F)cc(C(F)(F)F)c1)c1cc(Cl)ccc1O [Compound 50, N-[3,5-bis(trifluoromethyl)phenyl]-5-chloro-2-hydroxybenzamide]
- inhibition of transformation and proliferation of melanocyte under ultraviolet irradiation: almost completely inhibited

From patent publication US20070042997A1, “Medicament for treatment of dermal pigmentation” (priority 2003, published 2007)
